compound: C(C(=O)C(=O)O)Br [Bromopyruvate]; assay: relative viability (nuclei count vs DMSO), 5 days (fraction); higher = more cells survive; details: 1 µM
Method in brief: (§1)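 Lung cancer cell lines in 1536-well plates were kept overnight at 37 °C, then pinned with five library-drug doses (not always all listed) spaced by √10 on vehicle-anchored plates. After 5 days without medium change, cells were fixed, permeabilised and Hoechst-stained in one step, imaged at 4×, and nuclei were counted with MetaXpress. Viability is treated-well nuclei divided by vehicle-well nuclei, taken as the median over plates. Plates passed only with control CV below 25% and at least one doubling.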

Row | Cell Line | relative viability
1 | NCI-H1299 | 1.01
2 | NCI-H650 | 0.944
3 | CAL-12T | 0.972
4 | NCI-H1651 | 1.01
5 | EPLC-272H | 1.01
6 | NCI-H23 | 1.01
7 | NCI-H1792 | 1.14
8 | NCI-H1355 | 1.01
9 | NCI-H322M | 0.93
10 | NCI-H1437 | 1.05
11 | NCI-H1755 | 0.977
12 | NCI-H2085 | 1
13 | HCC-15 | 1.03
14 | NCI-H1793 | 1.03
15 | PC-3 [JPC-3] | 1.08
16 | EKVX | 0.988

same assay, conditions: 3.162 µM

Row | Cell Line | relative viability
17 | NCI-H1299 | 1
18 | NCI-H650 | 1
19 | CAL-12T | 0.982
20 | NCI-H1651 | 0.991
21 | EPLC-272H | 1.03
22 | NCI-H23 | 1.19
23 | NCI-H1792 | 1.21
24 | NCI-H1355 | 1.03
25 | NCI-H322M | 0.956
26 | NCI-H1437 | 0.961
27 | NCI-H1755 | 0.964
28 | NCI-H2085 | 1.04
29 | HCC-15 | 1.06
30 | NCI-H1793 | 1.09
31 | PC-3 [JPC-3] | 1.04
32 | EKVX | 0.973

same assay, conditions: 10 µM

Row | Cell Line | relative viability
33 | NCI-H1299 | 1.04
34 | NCI-H650 | 0.98
35 | CAL-12T | 0.919
36 | NCI-H1651 | 1.07
37 | EPLC-272H | 1.11
38 | NCI-H23 | 0.979
39 | NCI-H1792 | 0.805
40 | NCI-H1355 | 1.08
41 | NCI-H322M | 0.865
42 | NCI-H1437 | 1.04
43 | NCI-H1755 | 1.06
44 | NCI-H2085 | 1.03
45 | HCC-15 | 1.08
46 | NCI-H1793 | 1.12
47 | PC-3 [JPC-3] | 0.986
48 | EKVX | 1.06

same assay, conditions: 31.62 µM

Row | Cell Line | relative viability
49 | NCI-H1299 | 0.968
50 | NCI-H650 | 0.887
51 | CAL-12T | 0.982
52 | NCI-H1651 | 0.958
53 | EPLC-272H | 0.952
54 | NCI-H23 | 0.909
55 | NCI-H1792 | 0.811
56 | NCI-H1355 | 0.959
57 | NCI-H322M | 0.94
58 | NCI-H1437 | 0.972
59 | NCI-H1755 | 1.01
60 | NCI-H2085 | 1.07
61 | HCC-15 | 0.981
62 | NCI-H1793 | 0.959
63 | PC-3 [JPC-3] | 1.01
64 | EKVX | 1.01

same assay, conditions: 100 µM

Row | Cell Line | relative viability
65 | NCI-H1299 | 0.983
66 | NCI-H650 | 0.895
67 | CAL-12T | 0.956
68 | NCI-H1651 | 0.924
69 | EPLC-272H | 1.04
70 | NCI-H23 | 0.931
71 | NCI-H1792 | 0.928
72 | NCI-H1355 | 0.953
73 | NCI-H322M | 1.04
74 | NCI-H1437 | 1
75 | NCI-H1755 | 1.02
76 | NCI-H2085 | 1.02
77 | HCC-15 | 0.957
78 | NCI-H1793 | 1.08
79 | PC-3 [JPC-3] | 1.04
80 | EKVX | 0.969

compound: CC(O)(CS(=O)(=O)c1ccc(F)cc1)C(=O)Nc1ccc(C#N)c(C(F)(F)F)c1 [Bicalutamide]; assay: as above; details: 0.08 µM
Method in brief: as §1

Row | Cell Line | relative viability
81 | NCI-H1299 | 1.01
82 | NCI-H650 | 1.08
83 | CAL-12T | 1.03
84 | NCI-H1651 | 0.995
85 | EPLC-272H | 0.996
86 | NCI-H23 | 1.02
87 | NCI-H1792 | 0.987
88 | NCI-H1355 | 1.03
89 | NCI-H322M | 0.969
90 | NCI-H1437 | 0.997
91 | NCI-H1755 | 0.988
92 | NCI-H2085 | 1.01
93 | HCC-15 | 1.02
94 | NCI-H1793 | 0.823
95 | PC-3 [JPC-3] | 1.07
96 | EKVX | 1.02

same assay, conditions: 0.253 µM

Row | Cell Line | relative viability
97 | NCI-H1299 | 1.04
98 | NCI-H650 | 1.03
99 | CAL-12T | 0.855
100 | NCI-H1651 | 0.93
101 | EPLC-272H | 0.798
102 | NCI-H23 | 0.9
103 | NCI-H1792 | 0.779
104 | NCI-H1355 | 0.918
105 | NCI-H322M | 0.941
106 | NCI-H1437 | 0.966
107 | NCI-H1755 | 1.01
108 | NCI-H2085 | 0.955
109 | HCC-15 | 0.973
110 | NCI-H1793 | 0.736
111 | PC-3 [JPC-3] | 1.03
112 | EKVX | 0.984

same assay, conditions: 0.8 µM

Row | Cell Line | relative viability
113 | NCI-H1299 | 1.05
114 | NCI-H650 | 1.11
115 | CAL-12T | 1.11
116 | NCI-H1651 | 1.16
117 | EPLC-272H | 1.06
118 | NCI-H23 | 1.08
119 | NCI-H1792 | 1.19
120 | NCI-H1355 | 1.09
121 | NCI-H322M | 1.05
122 | NCI-H1437 | 1.07
123 | NCI-H1755 | 1.05
124 | NCI-H2085 | 1.01
125 | HCC-15 | 1.15
126 | NCI-H1793 | 1.02
127 | PC-3 [JPC-3] | 1.16
128 | EKVX | 1.09

same assay, conditions: 2.53 µM

Row | Cell Line | relative viability
129 | NCI-H1299 | 1
130 | NCI-H650 | 0.837
131 | CAL-12T | 0.842
132 | NCI-H1651 | 0.972
133 | EPLC-272H | 0.908
134 | NCI-H23 | 0.812
135 | NCI-H1792 | 0.962
136 | NCI-H1355 | 0.946
137 | NCI-H322M | 1.06
138 | NCI-H1437 | 0.984
139 | NCI-H1755 | 0.876
140 | NCI-H2085 | 0.94
141 | HCC-15 | 1
142 | NCI-H1793 | 0.809
143 | PC-3 [JPC-3] | 1.03
144 | EKVX | 0.914
